Test results as given in patent US10040790B2, “Bicyclic heterocycles as FGFR inhibitors” (Incyte Corporation, priority 2013, dated 2018).

Key:
Type in all cases: biochemical
FGFR1 = FGFR1 (Homo sapiens (Human), UniProt P11362); experiment: FGFR Enzymatic Assay (FRET peptide phosphorylation), FGFR1; settings: ATP 210 μM, enzyme 0.02 nM
Procedure: (§1) The inhibitor potency of the exemplified compounds was measured in an enzyme assay that measures peptide phosphorylation using FRET measurements to detect product formation. Inhibitors were serially diluted in DMSO and a volume of 0.5 μL was transferred to the wells of a 384-well plate. For FGFR3, a 10 μL volume of FGFR3 enzyme (Millipore) diluted in assay buffer (50 mM HEPES, 10 mM MgCl2, 1 mM EGTA, 0.01% Tween-20, 5 mM DTT, pH 7.5) was added to the plate and pre-incubated for 5-10 minutes. Appropriate controls (enzyme blank and enzyme with no inhibitor) were included on the plate. The assay was initiated by the addition of a 10 μL solution containing biotinylated EQEDEPEGDYFEWLE peptide substrate (SEQ ID NO: 1) and ATP (final concentrations of 500 nM and 140 μM respectively) in assay buffer to the wells. The plate was incubated at 25° C. for 1 hr. The reactions were ended with the addition of 10 μL/well of quench solution (50 mM Tris, 150 mM NaCl, 0.5 mg/mL BSA, pH 7.8; 30 mM EDTA with Perkin Elmer Lance Reagents at 3.75 nM Eu-antibody PY20 and 180 nM APC-Streptavidin). The plate was allowed to equilibrate for ˜1 hr before scanning the wells on a PheraStar plate reader (BMG Labtech).
(§2) FGFR1 and FGFR2 were measured under equivalent conditions with the following changes in enzyme and ATP concentrations: FGFR1, 0.02 nM and 210 μM, respectively and FGFR2, 0.01 nM and 100 μM, respectively. The enzymes were purchased from Millipore or Invitrogen.
(§3) GraphPad prism3 was used to analyze the data. The IC50 values were derived by fitting the data to the equation for a sigmoidal dose-response with a variable slope. Y=Bottom+(Top−Bottom)/(1+10^((Log IC50−X)*HillSlope)) where X is the logarithm of concentration and Y is the response.

FGFR2 = FGFR2 (Homo sapiens (Human), UniProt P21802); experiment: FGFR Enzymatic Assay (FRET peptide phosphorylation), FGFR2; settings: ATP 100 μM, enzyme 0.01 nM
Procedure: as §1, §2, §3

FGFR3 = FGFR3 (Homo sapiens (Human), UniProt P22607); experiment: FGFR Enzymatic Assay (FRET peptide phosphorylation), FGFR3; settings: ATP 140 μM
Procedure: as §1, §3

Measured: IC50

Chain of FGFR2 (P21802 22-821): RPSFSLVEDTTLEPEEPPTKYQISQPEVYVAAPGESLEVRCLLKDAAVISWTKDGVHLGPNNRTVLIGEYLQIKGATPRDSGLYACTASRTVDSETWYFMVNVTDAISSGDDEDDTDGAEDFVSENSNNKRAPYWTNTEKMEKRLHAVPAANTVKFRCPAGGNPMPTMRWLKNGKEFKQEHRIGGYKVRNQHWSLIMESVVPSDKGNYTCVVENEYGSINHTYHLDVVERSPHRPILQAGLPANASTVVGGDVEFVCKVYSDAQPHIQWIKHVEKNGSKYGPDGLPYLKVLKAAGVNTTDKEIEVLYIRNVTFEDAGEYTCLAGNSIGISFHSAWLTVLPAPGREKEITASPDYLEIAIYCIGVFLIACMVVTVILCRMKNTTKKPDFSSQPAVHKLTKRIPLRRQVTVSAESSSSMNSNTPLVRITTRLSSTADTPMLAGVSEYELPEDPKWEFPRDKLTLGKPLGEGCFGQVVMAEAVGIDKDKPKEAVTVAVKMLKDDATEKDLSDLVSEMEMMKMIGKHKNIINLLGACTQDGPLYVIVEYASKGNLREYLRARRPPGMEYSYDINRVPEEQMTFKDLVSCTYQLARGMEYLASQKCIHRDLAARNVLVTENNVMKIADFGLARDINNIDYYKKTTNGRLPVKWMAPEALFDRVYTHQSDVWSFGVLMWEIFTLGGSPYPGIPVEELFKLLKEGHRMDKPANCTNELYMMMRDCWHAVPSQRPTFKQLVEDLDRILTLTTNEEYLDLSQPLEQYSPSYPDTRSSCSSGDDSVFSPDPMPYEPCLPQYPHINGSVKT
Chain of FGFR1 (P11362 22-822): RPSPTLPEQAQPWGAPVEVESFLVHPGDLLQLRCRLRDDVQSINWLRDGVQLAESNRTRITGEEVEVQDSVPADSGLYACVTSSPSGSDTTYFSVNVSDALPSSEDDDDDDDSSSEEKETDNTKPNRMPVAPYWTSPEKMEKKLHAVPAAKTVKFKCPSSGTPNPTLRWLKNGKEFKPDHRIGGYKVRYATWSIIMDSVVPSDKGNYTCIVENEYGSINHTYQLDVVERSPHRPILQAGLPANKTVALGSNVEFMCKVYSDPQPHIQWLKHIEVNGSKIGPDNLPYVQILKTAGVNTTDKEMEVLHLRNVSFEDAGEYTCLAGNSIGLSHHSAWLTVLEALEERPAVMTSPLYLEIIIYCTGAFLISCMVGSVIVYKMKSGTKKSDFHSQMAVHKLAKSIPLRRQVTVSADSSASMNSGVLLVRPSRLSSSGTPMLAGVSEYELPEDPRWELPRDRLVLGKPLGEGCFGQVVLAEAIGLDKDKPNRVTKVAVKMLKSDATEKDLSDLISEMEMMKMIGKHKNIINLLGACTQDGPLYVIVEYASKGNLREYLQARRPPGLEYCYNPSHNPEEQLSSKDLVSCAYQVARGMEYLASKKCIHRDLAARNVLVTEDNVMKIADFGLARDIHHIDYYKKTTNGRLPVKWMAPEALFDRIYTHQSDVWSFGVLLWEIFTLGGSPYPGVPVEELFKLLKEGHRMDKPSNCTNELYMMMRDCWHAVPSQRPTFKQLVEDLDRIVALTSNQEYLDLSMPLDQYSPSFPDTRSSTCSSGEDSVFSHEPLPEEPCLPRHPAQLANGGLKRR
Chain of FGFR3 (P22607 23-806): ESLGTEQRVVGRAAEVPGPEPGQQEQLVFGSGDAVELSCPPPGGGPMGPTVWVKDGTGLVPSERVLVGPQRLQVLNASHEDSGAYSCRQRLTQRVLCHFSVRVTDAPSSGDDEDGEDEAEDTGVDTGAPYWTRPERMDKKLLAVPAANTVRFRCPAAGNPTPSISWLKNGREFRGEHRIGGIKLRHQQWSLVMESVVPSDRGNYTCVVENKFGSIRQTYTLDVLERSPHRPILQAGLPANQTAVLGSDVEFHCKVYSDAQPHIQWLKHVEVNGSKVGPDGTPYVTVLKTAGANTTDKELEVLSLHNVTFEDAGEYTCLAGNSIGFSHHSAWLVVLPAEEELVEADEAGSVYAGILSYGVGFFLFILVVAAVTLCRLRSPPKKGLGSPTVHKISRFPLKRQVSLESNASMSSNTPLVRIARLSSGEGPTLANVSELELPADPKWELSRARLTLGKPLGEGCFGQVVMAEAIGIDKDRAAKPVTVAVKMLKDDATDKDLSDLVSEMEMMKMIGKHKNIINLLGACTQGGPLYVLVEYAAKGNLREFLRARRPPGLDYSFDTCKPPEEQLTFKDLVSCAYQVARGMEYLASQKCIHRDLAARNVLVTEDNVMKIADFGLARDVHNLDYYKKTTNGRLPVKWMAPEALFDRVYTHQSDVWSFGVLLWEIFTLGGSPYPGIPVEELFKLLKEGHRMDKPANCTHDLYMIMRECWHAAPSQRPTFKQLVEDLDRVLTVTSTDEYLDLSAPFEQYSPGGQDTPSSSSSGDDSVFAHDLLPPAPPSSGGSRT

COc1cc(OC)c(F)c(N2Cc3cnc(N)c(C)c3N(C)C2=O)c1F [Example 1, 7-amino-3-(2,6-difluoro-3,5-dimethoxyphenyl)-1,8-dimethyl-3,4-dihydropyrido[4,3-d]pyrimidin-2(1H)-one]
< 0.1 µM: all assays above

CCc1c(N)ncc2c1N(C)C(=O)N(c1c(F)c(OC)cc(OC)c1F)C2 [Example 2, 7-amino-3-(2,6-difluoro-3,5-dimethoxyphenyl)-8-ethyl-1-methyl-3,4-dihydropyrido[4,3-d]pyrimidin-2(1H)-one]
< 0.1 µM: all assays above

COc1cc(OC)c(F)c(N2Cc3cnc(N)c(C#N)c3N(C)C2=O)c1F [Example 3, 7-amino-3-(2,6-difluoro-3,5-dimethoxyphenyl)-1-methyl-2-oxo-1,2,3,4-tetrahydropyrido-[4,3-d]pyrimidine-8-carbonitrile]
< 0.1 µM: all assays above

CCOc1c(N)ncc2c1N(C)C(=O)N(c1c(F)c(OC)cc(OC)c1F)C2 [Example 4, 7-amino-3-(2,6-difluoro-3,5-dimethoxyphenyl)-8-ethoxy-1-methyl-3,4-dihydropyrido[4,3-d]pyrimidin-2(1H)-one]
< 0.1 µM: all assays above

COCCOc1c(N)ncc2c1N(C)C(=O)N(c1c(F)c(OC)cc(OC)c1F)C2 [Example 5, 7-amino-3-(2,6-difluoro-3,5-dimethoxyphenyl)-8-(2-methoxyethoxy)-1-methyl-3,4-dihydro-pyrido[4,3-d]pyrimidin-2(1H)-one]
< 0.1 µM: all assays above

COc1cc(OC)c(F)c(N2Cc3cnc(N)c(OCCN4CCN(C)CC4)c3N(C)C2=O)c1F [Example 6, 7-amino-3-(2,6-difluoro-3,5-dimethoxyphenyl)-1-methyl-8-[2-(4-methylpiperazin-1-yl)ethoxy]-3,4-dihydropyrido[4,3-d]pyrimidin-2(1H)-one]
< 0.1 µM: all assays above

COc1cc(OC)c(F)c(N2Cc3cnc(N)c(Oc4ccccc4)c3N(C)C2=O)c1F [Example 7, 7-amino-3-(2,6-difluoro-3,5-dimethoxyphenyl)-1-methyl-8-phenoxy-3,4-dihydropyrido[4,3-d]pyrimidin-2(1H)-one]
< 0.1 µM: all assays above

COc1cc(OC)c(F)c(N2Cc3cnc(N)c(-c4cnn(C)c4)c3N(C)C2=O)c1F [Example 8, 7-amino-3-(2,6-difluoro-3,5-dimethoxyphenyl)-1-methyl-8-(1-methyl-1H-pyrazol-4-yl)-3,4-dihydropyrido[4,3-d]pyrimidin-2(1H)-one]
< 0.1 µM: all assays above

CCn1cc(-c2c(N)ncc3c2N(C)C(=O)N(c2c(F)c(OC)cc(OC)c2F)C3)cn1 [Example 9, 7-amino-3-(2,6-difluoro-3,5-dimethoxyphenyl)-1-methyl-8-(1-ethyl-1H-pyrazol-4-yl)-3,4-dihydropyrido[4,3-d]pyrimidin-2(1H)-one]
< 0.1 µM: all assays above

COc1cc(OC)c(F)c(N2Cc3cnc(N)c(-c4cnn(CCO)c4)c3N(C)C2=O)c1F [Example 10, 7-amino-3-(2,6-difluoro-3,5-dimethoxyphenyl)-8-[1-(2-hydroxyethyl)-1H-pyrazol-4-yl]-1-methyl-3,4-dihydropyrido[4,3-d]pyrimidin-2(1H)-one]
< 0.1 µM: all assays above

COc1cc(OC)c(F)c(N2Cc3cnc(N)c(-c4cnn(C5CCNCC5)c4)c3N(C)C2=O)c1F [Example 11, 7-amino-3-(2,6-difluoro-3,5-dimethoxyphenyl)-1-methyl-8-(1-piperidin-4-yl-1H-pyrazol-4-yl)-3,4-dihydropyrido[4,3-d]pyrimidin-2(1H)-one]
< 0.1 µM: all assays above

COc1cc(OC)c(F)c(N2Cc3cnc(N)c(-c4cn[nH]c4)c3N(C)C2=O)c1F [Example 12, 7-amino-3-(2,6-difluoro-3,5-dimethoxyphenyl)-1-methyl-8-(1H-pyrazol-4-yl)-3,4-dihydro-pyrido[4,3-d]pyrimidin-2(1H)-one]
< 0.1 µM: all assays above

COc1cc(OC)c(F)c(N2Cc3cnc(N)c(-c4ccnn4C)c3N(C)C2=O)c1F [Example 13, 7-amino-3-(2,6-difluoro-3,5-dimethoxyphenyl)-1-methyl-8-(1-methyl-1H-pyrazol-5-yl)-3,4-dihydropyrido[4,3-d]pyrimidin-2(1H)-one]
< 0.1 µM: all assays above

COc1cc(OC)c(F)c(N2Cc3cnc(N)c(-c4ccccc4)c3N(C)C2=O)c1F [Example 14, 7-amino-3-(2,6-difluoro-3,5-dimethoxyphenyl)-1-methyl-8-phenyl-3,4-dihydropyrido[4,3-d]pyrimidin-2(1H)-one]
< 0.1 µM: all assays above

COc1cc(OC)c(F)c(N2Cc3cnc(N)c(-c4ccc(F)cc4)c3N(C)C2=O)c1F [Example 15, 7-amino-3-(2,6-difluoro-3,5-dimethoxyphenyl)-8-(4-fluorophenyl)-1-methyl-3,4-dihydro-pyrido[4,3-d]pyrimidin-2(1H)-one]
< 0.1 µM: all assays above

COc1cc(OC)c(F)c(N2Cc3cnc(N)c(-c4cccnc4)c3N(C)C2=O)c1F [Example 16, 7-amino-3-(2,6-difluoro-3,5-dimethoxyphenyl)-1-methyl-8-pyridin-3-yl-3,4-dihydropyrido[4,3-d]pyrimidin-2(1H)-one]
< 0.1 µM: all assays above

COc1cc(OC)c(F)c(N2Cc3cnc(N)c(-c4ccncc4)c3N(C)C2=O)c1F [Example 17, 7-amino-3-(2,6-difluoro-3,5-dimethoxyphenyl)-1-methyl-8-pyridin-4-yl-3,4-dihydropyrido[4,3-d]pyrimidin-2(1H)-one]
< 0.1 µM: all assays above

COc1cc(OC)c(F)c(N2Cc3cnc(N)c(/C=C/c4ccccc4)c3N(C)C2=O)c1F [Example 18, 7-amino-3-(2,6-difluoro-3,5-dimethoxyphenyl)-1-methyl-8-[(E)-2-phenylvinyl]-3,4-dihydropyrido[4,3-d]pyrimidin-2(1H)-one]
< 0.1 µM: all assays above

COc1cc(OC)c(F)c(N2Cc3cnc(N)c(CCc4ccccc4)c3N(C)C2=O)c1F [Example 19, 7-amino-3-(2,6-difluoro-3,5-dimethoxyphenyl)-1-methyl-8-phenylethyl-3,4-dihydropyrido-[4,3-d]pyrimidin-2(1H)-one]
< 0.1 µM: all assays above

COc1cc(OC)c(F)c(N2Cc3cnc(N)c(Cc4ccccc4)c3N(C)C2=O)c1F [Example 20, 7-amino-8-benzyl-3-(2,6-difluoro-3,5-dimethoxyphenyl)-1-methyl-3,4-dihydropyrido[4,3-d]pyrimidin-2(1H)-one]
< 0.1 µM: all assays above

COc1cc(OC)c(F)c(N2Cc3cnc(N)c(C4=CCOCC4)c3N(C)C2=O)c1F [Example 21, 7-amino-3-(2,6-difluoro-3,5-dimethoxyphenyl)-8-(3,6-dihydro-2H-pyran-4-yl)-1-methyl-3,4-dihydropyrido[4,3-d]pyrimidin-2(1H)-one]
< 0.1 µM: all assays above
